Measured values: the supplement of paper PMC10307832

Assays:
Experiment in all cases: relative viability (nuclei count vs DMSO), 5 days (fraction); higher = more cells survive
RERF-LC-KJ = test system: RERF-LC-KJ
In short: (§1)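 Dosing by pin tool came one day after lung cancer cell lines were seeded in 1536-well plates, using either one drug or a fixed anchor-drug dose plus five library-drug doses (not always all listed) in √10 steps. After 5 days, nuclei were counted on 4× images. Relative viability is treated-well nuclei count divided by vehicle-well nuclei count, and values are medians of duplicate plates.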

NCI-H1755 = test system: NCI-H1755
In short: as §1

LC-2-ad = test system: LC-2-ad
In short: as §1

A-427 = test system: A-427
In short: as §1

NCI-H23 = test system: NCI-H23
In short: as §1

NCI-H2170 = test system: NCI-H2170
In short: as §1

UMC-11 = test system: UMC-11
In short: as §1

NCI-H2347 = test system: NCI-H2347
In short: as §1

LCLC-103H = test system: LCLC-103H
In short: as §1

NCI-H1734 = test system: NCI-H1734
In short: as §1

NCI-H1915 = test system: NCI-H1915
In short: as §1

SMILES: Cc1csc(=NC2CCCCC2)n1/N=C/c1ccc(O)c(O)c1O [MIM1] + C[C@@H](Oc1cc(-c2cnn(C3CCNCC3)c2)cnc1N)c1c(Cl)ccc(F)c1Cl [Crizotinib] (partner 1 µM)
- relative viability (RERF-LC-KJ; first compound 0.2 µM): 0.787
- relative viability (RERF-LC-KJ; first compound 0.6325 µM): 0.836
- relative viability (RERF-LC-KJ; first compound 2 µM): 0.708
- relative viability (RERF-LC-KJ; first compound 6.325 µM): 0.499
- relative viability (RERF-LC-KJ; first compound 20 µM): 0.267
- relative viability (NCI-H1755; first compound 0.2 µM): 0.861
- relative viability (NCI-H1755; first compound 0.6325 µM): 0.794
- relative viability (NCI-H1755; first compound 2 µM): 0.803
- relative viability (NCI-H1755; first compound 6.325 µM): 0.68
- relative viability (NCI-H1755; first compound 20 µM): 0.179
- relative viability (LC-2-ad; first compound 0.2 µM): 0.499
- relative viability (LC-2-ad; first compound 0.6325 µM): 0.385
- relative viability (LC-2-ad; first compound 2 µM): 0.34
- relative viability (LC-2-ad; first compound 6.325 µM): 0.277
- relative viability (LC-2-ad; first compound 20 µM): 0.21
- relative viability (A-427; first compound 0.2 µM): 0.881
- relative viability (A-427; first compound 0.6325 µM): 0.731
- relative viability (A-427; first compound 2 µM): 0.862
- relative viability (A-427; first compound 6.325 µM): 0.713
- relative viability (A-427; first compound 20 µM): 0.214
- relative viability (NCI-H23; first compound 0.2 µM): 0.554
- relative viability (NCI-H23; first compound 2 µM): 0.334
- relative viability (NCI-H23; first compound 6.325 µM): 0.487
- relative viability (NCI-H23; first compound 20 µM): 0.259
- relative viability (NCI-H2170; first compound 0.2 µM): 1.15
- relative viability (NCI-H2170; first compound 0.6325 µM): 1.07
- relative viability (NCI-H2170; first compound 2 µM): 1.13
- relative viability (NCI-H2170; first compound 6.325 µM): 0.652
- relative viability (NCI-H2170; first compound 20 µM): 0.302
- relative viability (UMC-11; first compound 0.2 µM): 0.544
- relative viability (UMC-11; first compound 0.6325 µM): 0.565
- relative viability (UMC-11; first compound 2 µM): 0.649
- relative viability (UMC-11; first compound 6.325 µM): 0.349
- relative viability (UMC-11; first compound 20 µM): 0.184
- relative viability (NCI-H2347; first compound 0.2 µM): 0.584
- relative viability (NCI-H2347; first compound 0.6325 µM): 0.548
- relative viability (NCI-H2347; first compound 2 µM): 0.677
- relative viability (NCI-H2347; first compound 6.325 µM): 0.577
- relative viability (NCI-H2347; first compound 20 µM): 0.4
- relative viability (LCLC-103H; first compound 0.2 µM): 1
- relative viability (LCLC-103H; first compound 0.6325 µM): 1
- relative viability (LCLC-103H; first compound 2 µM): 1.1
- relative viability (LCLC-103H; first compound 6.325 µM): 0.909
- relative viability (LCLC-103H; first compound 20 µM): 0.985
- relative viability (NCI-H1734; first compound 0.2 µM): 0.657
- relative viability (NCI-H1734; first compound 0.6325 µM): 0.677
- relative viability (NCI-H1734; first compound 2 µM): 0.596
- relative viability (NCI-H1734; first compound 6.325 µM): 0.379
- relative viability (NCI-H1734; first compound 20 µM): 0.242
- relative viability (NCI-H1915; first compound 0.2 µM): 0.887
- relative viability (NCI-H1915; first compound 0.6325 µM): 0.875
- relative viability (NCI-H1915; first compound 2 µM): 0.792
- relative viability (NCI-H1915; first compound 6.325 µM): 0.648
- relative viability (NCI-H1915; first compound 20 µM): 0.219
